# According to US11345681B1, “Inhibitors of fibroblast growth factor receptor kinases” (Kinnate Biopharma Inc., priority 2020, dated 2022):
# Target: Wild type FGFR2 (Homo sapiens (Human), UniProt P21802)
# Assay: FGFR2 kinase assay (fluorescence-based microfluidic mobility shift assay)
# Format: biochemical
# Details: wild type FGFR2 0.06 nM, 100 μM ATP, 80 minutes at room temperature; class symbols
# Chain of Wild type FGFR2 (P21802 22-821): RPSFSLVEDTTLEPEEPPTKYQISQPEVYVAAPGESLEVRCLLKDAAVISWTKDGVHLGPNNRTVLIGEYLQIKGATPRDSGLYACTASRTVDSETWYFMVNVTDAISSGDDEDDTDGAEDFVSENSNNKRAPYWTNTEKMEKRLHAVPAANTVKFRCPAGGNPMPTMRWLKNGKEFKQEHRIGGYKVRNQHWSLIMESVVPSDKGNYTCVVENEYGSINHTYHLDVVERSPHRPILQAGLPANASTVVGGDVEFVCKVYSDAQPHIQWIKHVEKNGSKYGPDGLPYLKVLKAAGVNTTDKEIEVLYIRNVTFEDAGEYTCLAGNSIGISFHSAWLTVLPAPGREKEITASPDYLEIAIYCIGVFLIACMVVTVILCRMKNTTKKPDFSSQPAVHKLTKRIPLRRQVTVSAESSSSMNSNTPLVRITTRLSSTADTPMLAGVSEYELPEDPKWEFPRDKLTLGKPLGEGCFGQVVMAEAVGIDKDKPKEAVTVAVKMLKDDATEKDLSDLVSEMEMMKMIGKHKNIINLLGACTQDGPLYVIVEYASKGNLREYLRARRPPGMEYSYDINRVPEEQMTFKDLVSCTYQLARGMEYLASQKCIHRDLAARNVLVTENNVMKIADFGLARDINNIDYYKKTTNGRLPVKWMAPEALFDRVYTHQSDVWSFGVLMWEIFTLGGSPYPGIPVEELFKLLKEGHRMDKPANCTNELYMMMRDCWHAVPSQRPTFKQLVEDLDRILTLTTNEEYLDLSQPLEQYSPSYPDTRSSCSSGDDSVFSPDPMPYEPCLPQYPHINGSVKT
row,SMILES,IC50 [nM]
1,"C=CC(=O)N1C[C@@H](n2nc(C#Cc3cc4ncn(C5CC5)c4cc3Cl)c(C(N)=O)c2N)C[C@@H]1COC [Example 200, 5-Amino-3-[2-(6-chloro-1-cyclopropyl-1,3-benzodiazol-5-yl)ethynyl]-1-[(3S,5R)-5-(methoxymethyl)-1-(prop-2-enoyl)pyrrolidin-3-yl]pyrazole-4-carboxamide]",≤ 100
2,"C=CC(=O)N1C[C@@H](n2nc(C#Cc3c(F)cc4c(ncn4C4CC4)c3F)c(C(N)=O)c2N)C[C@@H]1CO [Example 201, 5-Amino-3-[2-(1-cyclopropyl-4,6-difluoro-1,3-benzodiazol-5-yl)ethynyl]-[(3S,5R)-5-(hydroxymethyl)-1-(prop-2-enoyl)pyrrolidin-3-yl]pyrazole-4-carboxamide]",≤ 100
3,"C=CC(=O)N1CC(n2nc(C#Cc3cc4ncn(C5CC5)c4cc3F)c(C(N)=O)c2N)C1 [Example 202, 5-Amino-3-[2-(1-cyclopropyl-6-fluoro-1,3-benzodiazol-5-yl)ethynyl]-1-[1-(prop-2-enoyl)azetidin-3-yl]pyrazole-4-carboxamide]",≤ 100
4,"CNc1c(C(N)=O)c(C#Cc2cc3ncn(C4CC4)c3cc2F)nn1[C@H]1C[C@H](COC)N(C(=O)C#CC(C)(C)O)C1 [Example 203, 3-((1-Cyclopropyl-6-fluoro-1H-benzo[d]imidazol-5-yl)ethynyl)-1-((3S,5R)-1-(4-hydroxy-4-methylpent-2-ynoyl)-5-(methoxymethyl)pyrrolidin-3-yl)-5-(methylamino)-1H-pyrazole-4-carboxamide]",≤ 100
5,"CNc1c(C(N)=O)c(C#Cc2cc3ncn(C4CC4)c3cc2F)nn1C1CN(C(=O)/C=C/CN(C)C)C1 [Example 204, 3-[2-(1-Cyclopropyl-6-fluoro-1,3-benzodiazol-5-yl)ethynyl]-1-{1-[(2E)-4-(dimethylamino)but-2-enoyl]azetidin-3-yl}-5-(methylamino)pyrazole-4-carboxamide]",100 to 1000
6,"C=CC(=O)N1C[C@@H](n2nc(C#Cc3cc4ncn(C5CC5)c4cc3F)c(C(N)=O)c2NCC)C[C@@H]1COC [Example 205, 1-((3S,5R)-1-Acryloyl-5-(methoxymethyl)pyrrolidin-3-yl)-3-((1-cyclopropyl-6-fluoro-1H-benzo[d]imidazol-5-yl)ethynyl)-5-(ethylamino)-1H-pyrazole-4-carboxamide]",≤ 100
7,"C=CC(=O)N1C[C@@H](n2nc(C#Cc3cc4nc(C)n(C5CC5)c4cc3F)c(C(N)=O)c2N)C[C@@H]1COC [Example 206, 5-Amino-3-[2-(1-cyclopropyl-6-fluoro-2-methyl-1,3-benzodiazol-5-yl)ethynyl]-1-[(3S,5R)-5-(methoxymethyl)-1-(prop-2-enoyl)pyrrolidin-3-yl]pyrazole-4-carboxamide]",≤ 100
8,"C=CC(=O)N1C[C@@H](n2nc(C#Cc3cc4ncn(C5CC5)c4cc3F)c(C(N)=O)c2N)C[C@@H]1CO [Example 207, 5-Amino-3-[2-(1-cyclopropyl-6-fluoro-1,3-benzodiazol-5-yl)ethynyl]-1-[(3S,5R)-5-(hydroxymethyl)-1-(prop-2-enoyl)pyrrolidin-3-yl]pyrazole-4-carboxamide]",≤ 100
9,"C=CC(=O)N1CC(n2nc(C#Cc3cc4ncn(C5CC5)c4cc3Cl)c(C(N)=O)c2N)C1 [Example 208, 5-Amino-3-[2-(6-chloro-1-cyclopropyl-1,3-benzodiazol-5-yl)ethynyl]-1-[1-(prop-2-enoyl)azetidin-3-yl]pyrazole-4-carboxamide]",≤ 100
10,"C=CC(=O)N1CC(n2nc(C#Cc3cc4ncn(CC)c4cc3Cl)c(C(N)=O)c2N)C1 [Example 209, 5-Amino-3-[2-(6-chloro-1-ethyl-1,3-benzodiazol-5-yl)ethynyl]-1-[1-(prop-2-enoyl)azetidin-3-yl]pyrazole-4-carboxamide]",≤ 100
11,"C=CC(=O)N1CC(n2nc(C#Cc3c(F)cc4c(ncn4C4CC4)c3F)c(C(N)=O)c2N)C1 [Example 210, 5-Amino-3-[2-(1-cyclopropyl-4,6-difluoro-1,3-benzodiazol-5-yl)ethynyl]-1-[1-(prop-2-enoyl)azetidin-3-yl]pyrazole-4-carboxamide]",≤ 100
12,"C=CC(=O)N1C[C@@H](n2nc(C#Cc3cc4ncn(C5CC5)c4cc3F)c(C(N)=O)c2N)C[C@@H]1COC(F)F [Example 211, 5-Amino-3-[2-(1-cyclopropyl-6-fluoro-1,3-benzodiazol-5-yl)ethynyl]-1-[(3S,5R)-5-[(difluoromethoxy)methyl]-1-(prop-2-enoyl)pyrrolidin-3-yl]pyrazole-4-carboxamide]",≤ 100
13,"C=CC(=O)N1C[C@@H](n2nc(C#Cc3ccc4c(c3)ncn4C3CC3)c(C(N)=O)c2N)C[C@@H]1COC(F)F [Example 212, 5-Amino-3-[2-(1-cyclopropyl-1,3-benzodiazol-5-yl)ethynyl]-1-[(3S,5R)-5-[(difluoromethoxy)methyl]-1-(prop-2-enoyl)pyrrolidin-3-yl]pyrazole-4-carboxamide]",≤ 100
14,"C=CC(=O)N1C[C@@H](n2nc(C#Cc3cc4nc(C)n(C5CC5)c4cc3Cl)c(C(N)=O)c2N)C[C@@H]1COC [Example 214, 5-Amino-3-[2-(6-chloro-1-cyclopropyl-2-methyl-1,3-benzodiazol-5-yl)ethynyl]-1-[(3S,5R)-5-(methoxymethyl)-1-(prop-2-enoyl)pyrrolidin-3-yl]pyrazole-4-carboxamide]",≤ 100
15,"C=CC(=O)N1C[C@@H](n2nc(C#Cc3c(F)cc4c(ncn4C4CC4)c3F)c(C(N)=O)c2N)C[C@@H]1COC(F)F [Example 215, 5-Amino-3-[2-(1-cyclopropyl-4,6-difluoro-1,3-benzodiazol-5-yl)ethynyl]-1-[(3S,5R)-5-[(difluoromethoxy)methyl]-1-(prop-2-enoyl)pyrrolidin-3-yl]pyrazole-4-carboxamide]",≤ 100
16,"C=CC(=O)N1C[C@@H](n2nc(C#Cc3cc4nc(C)n(C5CC5)c4cc3Cl)c(C(N)=O)c2NC)C[C@@H]1[C@@H](C)O [Example 220, 1-((3S,5R)-1-Acryloyl-5-((R)-1-hydroxyethyl)pyrrolidin-3-yl)-3-((6-chloro-1-cyclopropyl-2-methyl-1H-benzo[d]imidazol-5-yl)ethynyl)-5-(methylamino)-1H-pyrazole-4-carboxamide]",≤ 100
17,"C=CC(=O)N1C[C@@H](n2nc(C#Cc3cc4nc(C)n(C5CC5)c4cc3Cl)c(C(N)=O)c2NC)C[C@@H]1[C@H](C)O [Example 221, 1-((3S,5R)-1-Acryloyl-5-((S)-1-hydroxyethyl)pyrrolidin-3-yl)-3-((6-chloro-1-cyclopropyl-2-methyl-1H-benzo[d]imidazol-5-yl)ethynyl)-5-(methylamino)-1H-pyrazole-4-carboxamide]",≤ 100
18,"C=CC(=O)N1C[C@@H](n2nc(C#Cc3cc4ncn(C5CC5)c4cc3Cl)c(C(N)=O)c2NC)C[C@@H]1[C@@H](C)O [Example 222, 3-[2-(6-Chloro-1-cyclopropyl-1,3-benzodiazol-5-yl)ethynyl]-1-[(3S,5R)-5-[(1R)-1-hydroxyethyl]-1-(prop-2-enoyl)pyrrolidin-3-yl]-5-(methylamino)pyrazole-4-carboxamide]",≤ 100
19,"C=CC(=O)N1C[C@@H](n2nc(C#Cc3cc4ncn(C5CC5)c4cc3Cl)c(C(N)=O)c2NC)C[C@@H]1[C@H](C)O [Example 223, 3-[2-(6-chloro-1-cyclopropyl-1,3-benzodiazol-5-yl)ethynyl]-1-[(3S,5R)-5-[(1S)-1-hydroxyethyl]-1-(prop-2-enoyl)pyrrolidin-3-yl]-5-(methylamino)pyrazole-4-carboxamide]",≤ 100
